Measurements published in patent US20100146646A1, “METHOD OF MONITORING RETINOPATHY” (priority 2007, published 2010).
Entries after “also recorded” stand apart in the source; their conditions may differ.

Tests used:
[1] = system: transgenic GFAP-GFP mice (glia of optic disc and central retina); assay: In vivo scanning laser opthalmoscope (SLO) imaging of GFP fluorescence in the optic disc after neurotoxicant injection; design: species or system mouse; settings: for time point of maximum GFP fluorescence around the fringe of the optic disc: adult GFAP-GFP mice, ip neurotoxicant, SLO imaging over 14 days; for retinal gliosis: neurotoxicant-treated GFAP-GFP mice, summary statement
Text: Transgenic GFAP-GFP mice: The generation and genotyping of the transgenic GFAP-GFP mice were done as previously described (Zhuo et al., 1997). Adult mice (8-10 weeks old) in the FVB/N background were used in the present study. Animal husbandry was provided by National University of Singapore animal holding unit. The experimental protocol covering the current study was approved by the Institutional Animal Care and Use Committee.
(§1) The test compounds 2′-CH3-MPTP (M103), KA (K0250) and IDPN (317306) were purchased from Sigma-Aldrich (St. Louis, Mo., USA). Each mouse in the treatment group received either 4 intraperitoneal (ip) injections of 2′-CH3-MPTP (15 mg/kg in saline, ip, once every 2 hours), a single injection of KA (25 mg/kg in saline, ip) or 3 injections of IDPN (500 mg/kg, ip, once daily). For each neurotoxicant-treated group (n=3), saline was used as a vehicle for the control group (n=3). Retinal imaging was subsequently performed over a period of 14 days.
Preparation of Animals: Mice were Anaesthetized by Ip Injections with 0.15 ml/10 g body weight of Avertin (1.5% 2,2,2-tribromoethanol; T48402) purchased from Sigma-Aldrich (St. Louis, Mo., USA), and their pupils dilated with a drop of 0.5% Cyclogyl® sterile ophthalmic solution (cyclopentolate hydrochloride, Alcon®, Puurs, Belgium). Custom-made PMMA hard contact lenses (from Cantor & Nissel (Northamptonshire, UK) were used to correct optical aberration and to avoid dehydration of the mouse eyes. Careful examination by an eye specialist before scanning laser opthalmoscope imaging ruled out the presence of any corneal or lens opacities.
Scanning laser opthalmoscope (SLO) imaging: For the work described here, the second version of Heidelberg Retina Angiograph (HRA II) scanning laser opthalmoscope (Heidelberg Engineering, Dossenheim, Germany) modified for use on mice was employed. The scanning laser opthalmoscope (SLO) is a fundus imaging technique based on the scanning of the fundus with a laser beam from a point source, while the reflected light is detected by a photomultiplier. Incident and reflected light follow a co-axial path. Therefore, more light can pass through small eyes than with conventional fundus cameras. Several reports of SLO imaging in rats (Hossain et al., 1998; Khoobehi and Peyman, 1999; Cordeiro et al., 2004; Genevois et al., 2004) and mice (Jaissle et al., 2001; Xu et al., 2003) have been published, with the latest study by (Seeliger et al., 2005) and (Paques et al., 2006) in evaluating mouse fundus with the first version of the HRA (or HRA I). The HRA II features the two Argon lasers in the short wavelength range (488 nm and 514 nm) and two infrared diode lasers in the long wavelength range (795 nm and 830 nm). The 488 and 795 nm lasers are used for fluorescein and indocyanine green angiography respectively. Appropriate barrier filters of 500 nm and 800 nm, respectively, remove the reflected light with unchanged wavelength and allow only the light emitted by the dye upon stimulation to pass through. The finest definition is 768×768 pixels at an optical resolution of 10 μm/pixel and coupled with three fields of view (nominal values of 15°, 20° and 30°). The focus is adjustable over a +12/−12 diopters range using step increments of 0.25 diopters. A video acquisition mode (48 ms to 96 ms per image) is available. Within any area of interest, a stack of tomographic images (z-scans) up to a maximum depth of 8 mm can be automatically acquired.

[2] = system: transgenic GFAP-GFP mice (hippocampus, substantia nigra, striatum, olfactory bulb); assay: Brain cryosections: transgenic GFP and GFAP immunohistochemistry (gliosis); format: in vivo, mouse
Experimental: as §1
Retina wholemount and immunohistochemistry (IHC): After perfusing the mice with 1×PBS, followed by 4% fresh paraformaldehyde (in 1×PBS, pH 7.4), the brains were harvested and the eyes enucleated. The eyes were fixed immediately in 4% paraformaldehyde overnight at 4° C., after which they were dissected at the equator with the lens and vitreous removed. The retina was then dissected free from the choroid and sclera and whole mounted on a glass slide. Whole retina was mounted with Vectorshield mounting medium for fluorescence (Vector Laboratories, Inc., Burlingame, Calif., USA; H1000). The brains were first fixed in 4% paraformaldehyde for 4 hr at 4° C. and soaked in 30% sucrose at 4° C. overnight. The processed brain tissues were embedded in OTC freezing medium for sectioning on a cryostat (Leica Microsystems, Nussloch GmbH; CM-3050S). Coronal cryosections (10 μm) of the hippocampus (bregma −1.94 mm, interaural 1.86 mm), SNpc (bregma −3.16 mm, interaural 0.64 mm) and olfactory bulb (bregma 4.28 mm, interaural 8.08 mm) according to the Atlas of Mouse Brain (Franklin and Paxinos, 2001), together with the retina wholemounts were used for IHC using rabbit polyclonal antibodies (in 1:200 dilution) against GFAP (Dako, Z0334). Sections of the SNpc and striatum (bregma 0.62 mm, interaural 4.42 mm) were used for IHC using rabbit polyclonal antibodies (in 1:200 dilution) against tyrosine hydroxylase (TH; Chemicon, Calif., USA; Ab-152). The bound primary antibodies on the tissue sections were stained with a goat IgG conjugated to Texas-red (Abeam, Ab7088) at 1:100 dilution for 2 hr at room temperature, and visualized using confocal microscopy (LSM 510 META, Carl Zeiss Microimaging GmbH, Jena Germany).

[3] = system: transgenic GFAP-GFP mice (SNpc and striatum); assay: Brain cryosections: tyrosine hydroxylase (TH) immunohistochemistry; format: in vivo, mouse; settings: a day after administration, vs saline
Experimental: as §1
(§2) Retina wholemount and immunohistochemistry (IHC): After perfusing the mice with 1×PBS, followed by 4% fresh paraformaldehyde (in 1×PBS, pH 7.4), the brains were harvested and the eyes enucleated. The eyes were fixed immediately in 4% paraformaldehyde overnight at 4° C., after which they were dissected at the equator with the lens and vitreous removed. The retina was then dissected free from the choroid and sclera and whole mounted on a glass slide. Whole retina was mounted with Vectorshield mounting medium for fluorescence (Vector Laboratories, Inc., Burlingame, Calif., USA; H1000). The brains were first fixed in 4% paraformaldehyde for 4 hr at 4° C. and soaked in 30% sucrose at 4° C. overnight. The processed brain tissues were embedded in OTC freezing medium for sectioning on a cryostat (Leica Microsystems, Nussloch GmbH; CM-3050S). […]

[4] = system: neuronal and glial cells in the retina; settings: cited from earlier work
[5] = system: transgenic GFAP-GFP mice (whole-mount retina); assay: Retina whole-mount: transgenic GFP and GFAP immunohistochemistry; format: in vivo, mouse; settings: 7 days after a single ip injection (25 mg/kg), vs saline
Experimental: as §1, §2

retinal Müller cells = settings: injected into the vitreous of the eye; cited from earlier work
[6] = a day after administration, vs saline
[7] = 7 days after administration, vs saline

## Cc1ccccc1C1=CCN(C)CC1 [2′-CH3-MPTP, 1-methyl-4(2′-methylphenyl)-1,2,3,6-tetrahydropyridine]
[1]
  time point of maximum GFP fluorescence around the fringe of the optic disc: 1 days
  retinal gliosis: elicits retinal gliosis
[1]; after administration of the neurotoxicant (4 x 15 mg/kg ip)
  time of maximal increase in GFP expression in the optic disc: 24 h
[2]; [6]
  GFP / gliosis in striatal astrocytes: acute gliosis; also recorded: substantial GFP increase
  gliosis in the substantia nigra: gliosis occurs extensively
[2]; a day after systemic administration
  GFP and GFAP expression in activated astrocytes of the brain: an increase in GFP and to a lesser extent, GFAP expression
[3]
  TH-immunoreactive midbrain dopaminergic neurons in the SNpc: observable tyrosine hydroxylase (TH) depletion; also recorded: marked depletion
  level of TH expression in the striatum: no change in TH expression could be visually observed; also recorded: no detectable changes

## CN1CC=C(c2ccccc2)CC1 [MPTP, 1-methyl-4-phenyl-1,2,3,6-tetrahydropyrine]
[4]; several days after injection
  GFAP immunoreactivity of the glial cells of the retina: increased
[4]; within a week after systemic injection in mice
  microglia in the inner outer retina: microglia activation was observed

## N#CCCNCCC#N [IDPN, 3,3-iminodipropionitrile]
[1]
  time point of maximum GFP fluorescence around the fringe of the optic disc: 7 days
  retinal gliosis: elicits retinal gliosis
[2]; 7 days after administration (3 x 500 mg/kg ip), vs saline
  gliosis / GFP-positive astrocytes co-localizing with GFAP-immunoreactive cells in the glomerular layer (GL) of the olfactory bulb: acute gliosis; also recorded: markedly more GFP-positive astrocytes
[2]; [7]
  GFAP-positive cells in the granular cell layer (GCL) of the olfactory bulb: strong increase of GFAP-positive cells

## C=C(C)[C@H]1CN[C@H](C(=O)O)[C@H]1CC(=O)O [KA, kainic acid]
[1]
  time point of maximum GFP fluorescence around the fringe of the optic disc: 7 days
  retinal gliosis: elicits retinal gliosis
[5]
  gliosis in the nerve fiber layer (NFL) of whole-mount retina (transgenic GFP and endogenous GFAP): severe gliosis
[2]; 7 days after administration, compared to saline control
  level of GFP and GFAP expression in the entire hippocampus area (CA1, CA3, dentate gyrus): extremely high level of GFP and GFAP expression
[2]; [7]
  gliosis in astrocytes of the hippocampus (GFP and GFAP): severe reactive gliosis
Retinal Müller cells
  GFAP in the retinal Müller cells: up-regulation of GFAP
